Test results taken from patent US11572373B2, “Maytansinoid-based drug delivery systems” (LADRX CORPORATION, priority 2017, dated 2023).
Marks after values point to notes of the source that are not given here.

assay: Stability and release kinetics of maytansinoid-HSA conjugates in buffer solution at pH 4.0 and pH 7.4; format: physicochemical; details: maytansinoid-HSA conjugate, PBS pH 7.4, 37° C., measured at 100 μM
Method: For preparing HSA conjugates of albumin-binding maytansinoids, HSA (200 μM: 361.8 μL, 1078 μM free Cys34; 100 μM: 180.9 μL, 1078 μM free Cys34) was diluted with PBS buffer (4 mM sodium phosphate, 150 mM NaCl, pH 7.4) (200 μM: 678.2 μL; 100 μM: 859.1 μL) and DMSO (200 μM: 130.0 μL; 100 μM: 195.0 μL) and incubated in a heating block at 37° C. for 30 minutes. The albumin-binding maytansinoid was added as a 2 mM stock solution in DMSO (200 μM: 130.0 μL; 100 μM: 65.0 μL) to the preincubated HSA sample to produce a 200 μM or 100 μM solution of maytansinoid-prodrug and 300 μM or 150 μM of free Cys34. The mixture having a pH of 7.4 was allowed to react for 10 min at 37° C. and was then analyzed hourly for 24 hours by RP-HPLC (Phenomenex Aeris WP XB-C18, 3.6 μm, 250×4.6 mm).
For studying the release kinetics at pH 4.0 the mixture was acidified with a mixture of 50 mM sodium acetate buffer pH 3.0 (200 μM: 119.3 μL; 100 μM: 125.2 μL) and 1 M HCl (200 μM: 12.7 μL; 100 μM: 6.8 μL) to reach pH 4.0. The mixture was subsequently analyzed hourly for 24 hours by RP-HPLC (Phenomenex Aeris WP XB-C18, 3.6 μm, 250×4.6 mm).
The following RP-HPLC conditions were used: Phenomenex Aeris WP XB-C18 3.6 μm, 250×4.6 mm; eluent A (100% 20 mM Tris buffer pH 8.0) and eluent B (90:10, MeCN: water) eluting with a gradient of eluent B (25% 0-0.5 min, 25-35% 0.5-2.5 min, 35-85% 2.5-16 min, 85-95% 16-17 min, 95% 17-20 min, 95-25% 20-25 min, 25% 25-30 min, flow rate 1.0 mL/min). Column oven temperature 37° C.; autosampler temperature 37° C.; 20 μL of injection volume.
To quantify the percentage of free drug released, standard curves of the free maytansinoids were prepared at different concentrations (200 μM, 100 μM, 50 μM, 25 μM and 12.5 μM). The area under the curve (AUC) was determined at 250 nm.

Structure (SMILES)	free maytansinoid after 24 h at pH 7.4
COc1cc2cc(c1Cl)N(C)C(=O)C[C@H](OC(=O)COc1cccc(/C(C)=N/NC(=O)c3ccc(NC(=O)CCNC(=O)[C@H](CS(=O)(=O)O)NC(=O)CCCCCN4C(=O)C=CC4=O)cc3[N+](=O)[O-])c1)[C@]1(C)O[C@H]1[C@H](C)[C@@H]1C[C@@](O)(NC(=O)O1)[C@H](OC)/C=C/C=C(\C)C2 [Compound 42]	4.8%**

same assay, conditions: maytansinoid-HSA conjugate, PBS pH 7.4, 37° C., measured at 200 μM

Structure (SMILES)	free maytansinoid after 24 h at pH 7.4
COc1cc2cc(c1Cl)N(C)C(=O)C[C@H](OC(=O)Cc1ccc(/C(C)=N/NC(=O)c3ccc(NC(=O)CCCCCN4C(=O)C=CC4=O)cc3S(=O)(=O)O)cc1)[C@]1(C)O[C@H]1[C@H](C)[C@@H]1C[C@@](O)(NC(=O)O1)[C@H](OC)/C=C/C=C(\C)C2 [Compound 32]	9.5%*
COc1cc2cc(c1Cl)N(C)C(=O)C[C@H](OC(=O)Cc1ccc(/C(C)=N/NC(=O)c3ccc(NC(=O)CCNC(=O)[C@H](CS(=O)(=O)O)NC(=O)CCCCCN4C(=O)C=CC4=O)cc3[N+](=O)[O-])cc1)[C@]1(C)O[C@H]1[C@H](C)[C@@H]1C[C@@](O)(NC(=O)O1)[C@H](OC)/C=C/C=C(\C)C2 [Compound 33]	6.5%*
COc1cc2cc(c1Cl)N(C)C(=O)C[C@H](OC(=O)COc1ccc(/C(C)=N/NC(=O)c3ccc(NC(=O)CCCCCN4C(=O)C=CC4=O)cc3S(=O)(=O)O)cc1)[C@]1(C)O[C@H]1[C@H](C)[C@@H]1C[C@@](O)(NC(=O)O1)[C@H](OC)/C=C/C=C(\C)C2 [Compound 36]	4.7%*
COc1cc2cc(c1Cl)N(C)C(=O)C[C@H](OC(=O)CSc1ccc(/C(C)=N/NC(=O)c3ccc(NC(=O)CCCCCN4C(=O)C=CC4=O)cc3S(=O)(=O)O)cc1)[C@]1(C)O[C@H]1[C@H](C)[C@@H]1C[C@@](O)(NC(=O)O1)[C@H](OC)/C=C/C=C(\C)C2 [Compound 37]	3.9%*
COc1cc2cc(c1Cl)N(C)C(=O)C[C@H](OC(=O)CSc1ccc(/C(C)=N/NC(=O)c3ccc(NC(=O)CCCCCN4C(=O)C=CC4=O)cc3S(=O)(=O)O)cc1C(F)(F)F)[C@]1(C)O[C@H]1[C@H](C)[C@@H]1C[C@@](O)(NC(=O)O1)[C@H](OC)/C=C/C=C(\C)C2 [Compound 38]	4.9%*
COc1cc2cc(c1Cl)N(C)C(=O)C[C@H](OC(=O)CSc1ccc(/C(C)=N/NC(=O)c3ccc(NC(=O)CCCCCN4C(=O)C=CC4=O)cc3S(=O)(=O)O)cc1C)[C@]1(C)O[C@H]1[C@H](C)[C@@H]1C[C@@](O)(NC(=O)O1)[C@H](OC)/C=C/C=C(\C)C2 [Compound 39]	9.6%*
COc1cc2cc(c1Cl)N(C)C(=O)C[C@H](OC(=O)CN(C)c1ccc(/C(C)=N/NC(=O)c3ccc(NC(=O)CCCCCN4C(=O)C=CC4=O)cc3S(=O)(=O)O)cc1)[C@]1(C)O[C@H]1[C@H](C)[C@@H]1C[C@@](O)(NC(=O)O1)[C@H](OC)/C=C/C=C(\C)C2 [Compound 40]	8.9%*
COc1cc2cc(c1Cl)N(C)C(=O)C[C@H](OC(=O)CCc1ccc(/C(C)=N/NC(=O)c3ccc(NC(=O)CCCCCN4C(=O)C=CC4=O)cc3S(=O)(=O)O)cc1)[C@]1(C)O[C@H]1[C@H](C)[C@@H]1C[C@@](O)(NC(=O)O1)[C@H](OC)/C=C/C=C(\C)C2 [Compound 41]	4.6%*

assay: In vitro cytotoxicity in different cell lines using the CellTiter-Blue Cell Viability Assay; format: cell-based, human; details: Homo sapiens, 96 h, read-out: Geomean IC50

Structure (SMILES)	IC50
COc1cc2cc(c1Cl)N(C)C(=O)C[C@H](OC(=O)CNC(=O)c1ccc(C(C)=O)cc1)[C@]1(C)O[C@H]1[C@H](C)[C@@H]1C[C@@](O)(NC(=O)O1)[C@H](OC)/C=C/C=C(\C)C2 [Compound 21]	1.67 nM
CCN(CC(=O)O[C@H]1CC(=O)N(C)c2cc(cc(OC)c2Cl)C/C(C)=C/C=C/[C@@H](OC)[C@@]2(O)C[C@H](OC(=O)N2)[C@@H](C)[C@@H]2O[C@@]12C)C(=O)c1ccc(C(C)=O)cc1 [Compound 22]	25 nM
COc1cc2cc(c1Cl)N(C)C(=O)C[C@H](OC(=O)C1CCCN1C(=O)Nc1ccc(C(C)=O)cc1)[C@]1(C)O[C@H]1[C@H](C)[C@@H]1C[C@@](O)(NC(=O)O1)[C@H](OC)/C=C/C=C(\C)C2 (stereo partly shown) [Compound 23]	26.8 nM
COc1cc2cc(c1Cl)N(C)C(=O)C[C@H](OC(=O)[C@H](C)N(C)C(=O)c1ccc(C(C)=O)cc1)[C@]1(C)O[C@H]1[C@H](C)[C@@H]1C[C@@](O)(NC(=O)O1)[C@H](OC)/C=C/C=C(\C)C2 [Compound 24]	9.04 nM
COc1cc2cc(c1Cl)N(C)C(=O)C[C@H](OC(=O)CN(C)C(=O)c1ccc(C(C)=O)cc1)[C@]1(C)O[C@H]1[C@H](C)[C@@H]1C[C@@](O)(NC(=O)O1)[C@H](OC)/C=C/C=C(\C)C2 [Compound 25]	8.47 nM
COc1cc2cc(c1Cl)N(C)C(=O)C[C@H](OC(=O)CN(C)C(=O)c1ccc(C(C)=O)nc1)[C@]1(C)O[C@H]1[C@H](C)[C@@H]1C[C@@](O)(NC(=O)O1)[C@H](OC)/C=C/C=C(\C)C2 [Compound 26]	18.5 nM
COc1cc2cc(c1Cl)N(C)C(=O)C[C@H](OC(=O)CCNC(=O)c1ccc(C(C)=O)cc1)[C@]1(C)O[C@H]1[C@H](C)[C@@H]1C[C@@](O)(NC(=O)O1)[C@H](OC)/C=C/C=C(\C)C2 [Compound 27]	11.7 nM
COc1cc2cc(c1Cl)N(C)C(=O)C[C@H](OC(=O)Nc1ccc(C(C)=O)cc1)[C@]1(C)O[C@H]1[C@H](C)[C@@H]1C[C@@](O)(NC(=O)O1)[C@H](OC)/C=C/C=C(\C)C2 [Compound 28]	10.6 nM
COc1cc2cc(c1Cl)N(C)C(=O)C[C@H](OC(=O)[C@H](C)N(C)C(=O)CCC(C)=O)[C@]1(C)O[C@H]1[C@H](C)[C@@H]1C[C@@](O)(NC(=O)O1)[C@H](OC)/C=C/C=C(\C)C2 [Compound 44]	7.21 nM

same assay, conditions: Homo sapiens; geometric mean over the n cell lines tested, 96 h treatment, CellTiter-Blue; read-out: Geomean IC50

Structure (SMILES)	IC50
COc1cc2cc(c1Cl)N(C)C(=O)CC(O)C1(C)OC1C(C)C1CC(O)(NC(=O)O1)C(OC)/C=C/C=C(\C)C2 (stereo not shown) [Maytansinol, reference compound]	86 nM
